“Also recorded” adds a separate entry of the source.
How the values were obtained:
[1] = tested on: NCI-H929 multiple myeloma model; assay: NCI-H929 subcutaneous multiple myeloma xenograft mouse model (Example 1); assay type: in vivo, Balb/c Scid mice; conditions: carfilzomib 2 mg/kg 2×/wk × 3 wk IV; for Activity: D69, hu38SB19 0.5 mg/kg 2×/wk × 2 wk IV
From the text: The subcutaneous multiple myeloma (MM) xenograft mouse models were established using NCI-H929 or RPMI-8226 cell lines. Specifically, 5-6 week old female Balb/c Scid mice were obtained from Jackson Lab. Mice were housed for 7-10 days prior to implantation. Mice were housed in a dedicated room in the UCSF Mt Zion Animal Barrier Facility. NCI-H929 and RPMI-8226 cells were obtained from the German Collection of Microorganisms and Cell Cultures, DSMZ, (Deutsche Sammlung von Mikroorganismen and Zellkulturen), and grown in sterile suspension culture in T225 flasks as follows: NCI-H929: RPMI1640+20% FBS+4 mM L−glutamine+1 mM sodium pyruvate+50 μM mercaptoethanol. RPMI-8226: RPMI1640+10% FBS+4 mM L-glutamine. At the time of implantation, mice were shaved on the right flank and shoulder region and anesthetized with ip avertin. MM cells suspended in serum free RPMI 1640 media diluted 1:1 with Matrigel (BD) at a concentration of 1×10^8 cells per ml were injected sc into the right flank in 100 μL volume (1×10^7 cells) using a 1 ml syringe and 25 g needle. Mice were monitored twice weekly for the appearance of tumors and once tumors were visible, measurements were collected twice weekly for body weight and tumor volume. Electronic balance and calipers were used and data was collected directly into a study management program (Study Director). When the mean tumor volume reached about 150-200 mm^3, the mice were distributed into treatment groups of 8-10 mice per groups and dosing was begun. […] Dose levels for use in combination studies are as follows: Data were collected using electronic balance and calipers using a study management application called StudyLog (Study Director). […] Antitumor activity was determined according to NCI standards based on the ratio of the median tumor volume change of the treated/median tumor volume change of the control×100 (% ΔT/ΔC). Low numerical values for ΔT/ΔC describe stronger anti-tumor activity. Anti-tumor activity is defined as T/C≤40% at minimum. ΔT/ΔC<10% is considered high anti-tumor activity.

[2] = tested on: RPMI-8226 xenograft models; assay: RPMI-8226 subcutaneous multiple myeloma xenograft mouse model (Example 1); assay type: in vivo, Balb/c Scid mice; conditions: Day 41, carfilzomib 3 mg/kg qd×2 every wk×3 wk, hu38SB19 3 mg/kg BIW×2 wk
From the text: The subcutaneous multiple myeloma (MM) xenograft mouse models were established using NCI-H929 or RPMI-8226 cell lines. Specifically, 5-6 week old female Balb/c Scid mice were obtained from Jackson Lab. Mice were housed for 7-10 days prior to implantation. Mice were housed in a dedicated room in the UCSF Mt Zion Animal Barrier Facility. NCI-H929 and RPMI-8226 cells were obtained from the German Collection of Microorganisms and Cell Cultures, DSMZ, (Deutsche Sammlung von Mikroorganismen and Zellkulturen), and grown in sterile suspension culture in T225 flasks as follows: NCI-H929: RPMI1640+20% FBS+4 mM L−glutamine+1 mM sodium pyruvate+50 μM mercaptoethanol. RPMI-8226: RPMI1640+10% FBS+4 mM L-glutamine.
At the time of implantation, mice were shaved on the right flank and shoulder region and anesthetized with ip avertin. MM cells suspended in serum free RPMI 1640 media diluted 1:1 with Matrigel (BD) at a concentration of 1×10^8 cells per ml were injected sc into the right flank in 100 μL volume (1×10^7 cells) using a 1 ml syringe and 25 g needle. Mice were monitored twice weekly for the appearance of tumors and once tumors were visible, measurements were collected twice weekly for body weight and tumor volume. Electronic balance and calipers were used and data was collected directly into a study management program (Study Director). […]

NCI-H929 xenografts = assay: NCI-H929 hind-flank xenograft tumor growth (Example 3, FIGS. 12-13); assay type: in vivo, Balb/c Scid mice; conditions: for tumor growth inhibition, single agent: single-agent administration, NCI-H929 hind-flank model (FIG. 12)
Protocol: Carfilzomib (PR-171) was obtained from Chemie Tek (CT-CARP 98). Carfilzomib was formulated in an aqueous solution of 10% (w/v) sulfobutylether-h-cyclodextrin (Cydex) and 10 mmol/L sodium citrate (pH 3.5), 2 mg/ml stock prepared and frozen at −80° C., diluted daily with vehicle before injection. Carfilzomib was administered weekly qd×2×3 wk (iv).
Test Animals: 5-6 week old female Balb/c Scid mice were obtained from Jackson Lab. Mice were housed for 7-10 days prior to implantation of multiple myeloma (MM) cell lines. Mice were housed in a dedicated room in the UCSF Mt. Zion Animal Barrier Facility.
Xenograft Model: At the time of implantation, mice were shaved on the right flank and shoulder. MM cells were suspended in serum free RPMI 1640 media diluted 1:1 with Matrigel (BD) at a concentration of 1×10^8 cells per ml were injected sc into the right flank in 100 ul volume (1×10^7 cells) using a 1 ml syringe and 25 g needle. Mice were monitored twice weekly for the appearance of tumors and once tumors were visible, measurements were collected twice weekly for body weight and tumor volume. Electronic balance and calipers were used and data was collected directly into a study management program (Study Director). When the mean tumor volume reached approximately 150-200 mm^3, mice were distributed into treatment groups of 8-10 mice per group and dosing was initiated.

tumor cells [3] = assay: Direct pro-apoptotic activity on tumor cells without cross-linking; assay type: cell-based; conditions: preclinical studies
tumor cells [4] = conditions: reported in the literature; cited from earlier work

Molecule | Activity [1] | complete regressions [2] | elimination of palpable tumors (NCI-H929 xenografts; hu38SB19 as sole active ingredient, four cumulative doses twice weekly at 3 mg/kg (FIG. 12)) | tumor growth inhibition, single agent (NCI-H929 xenografts) | direct pro-apoptotic activity (tumor cells [3]) | Activity ([1]; listed as carfilzomib) | % ΔT/ΔC (D69) ([1]; hu38SB19 0.5 mg/kg 2×/wk × 2 wk IV) | induction of apoptosis (tumor cells [4])
hu38SB19: humanized anti-CD38 antibody; VH SEQ ID NO: 66, VL SEQ ID NO: 62 or 64; humanized version of 38SB19 | Inactive | 2/10 | eliminate palpable tumors in all mice | dose-dependent inhibition of tumor growth; also recorded: dose-dependent anti-tumor effects | potent direct pro-apoptotic activity | – | – | –
CC(C)C[C@H](NC(=O)[C@H](CCc1ccccc1)NC(=O)CN1CCOCC1)C(=O)N[C@@H](Cc1ccccc1)C(=O)N[C@@H](CC(C)C)C(=O)[C@@]1(C)CO1 [Carfilzomib, (S)-4-Methyl-N-((S)-1-(((S)-4-methyl-1-((R)-2-methyloxiran-2-yl)-1-oxopentan-2-yl)amino)-1-oxo-3-phenylpropan-2-yl)-2-((S)-2-(2-morpholinoacetamido)-4-phenylbutanamido)pentanamide] | Inactive | 0/10 | – | not robustly sensitive to single-agent therapy | – | inactive | 68% | –
Daratumumab: CD38 antibody reported to induce apoptosis only after cross-linking with a secondary antibody | – | – | – | – | – | – | – | able to induce apoptosis only after cross-linking with a secondary antibody

From patent US12533411B2, “Compositions comprising anti-CD38 antibodies and carfilzomib” (Sanofi-Aventis U.S. LLC, priority 2013, dated 2026)
